Test results: patent publication US20030138374A1, “Image diagnosis probe based on substituted azobenzene or analogue thereof for disease attributable to amyloid accumulation and composition for image diagnosis containing the same” (priority 2000, published 2003)
Like-named read-outs stand apart in the source and are kept apart here.

Assays:
amyloid β protein = molecular target: T1, amyloid β protein (Homo sapiens, UniProt P05067); assay: β structure recognition of amyloid β protein (thioflavin T fluorescence); format: binding; conditions: for β structure recognition (%) at 1 µM: read-out: β Structure recognition (%); for β structure recognition (in words): comment on Table I
T1 construct: the amyloid β protein (purchased from Peptide Laboratory) was dissolved in a potassium phosphate buffer (pH7.4); purchased Peptide Laboratory
Procedure: (1) Method of Quantifying the Amyloid β Protein Having β Sheet Structure—method of Measuring of Recognition of β Structure in a Test Compound
Then, each 100 microliters of thioflavin T (which emits fluorescence depending on an extent of β structure of the amyloid β protein) dissolved in a glycine-NaOH buffer (pH 8.5) was added (final concentration 3 μM), and the fluorescence was immediately measured with a fluorescent microplate reader (manufactured by Molecular Device, Model fmax) at an excitation wavelength of 442 nm and a measurement wavelength of 485 nm. When the fluorescence of thioflavin alone was regarded as A, the fluorescence under the coexistence of the amyloid β protein and thioflavin T was regarded as B, and the fluorescence under the coexistence of the amyloid β protein, thioflavin T and a test compound was regarded as C, the recognition of β structure for the test compound was calculated by the following formula (unless otherwise indicated, the concentration of a test compound was 1 μM):
β structure recognition for test compound (%)={(B−C)/(B−A)}×100

insulin = molecular target: T2, insulin (Homo sapiens, UniProt P01308); assay: Insulin β structure recognition (thioflavin T fluorescence); format: binding; conditions: insulin 0.1 mg/ml with β structure; average of two measurements; read-out: Insulin β sheet structure recognition EC50
T2 construct: insulin (purchased from Sigma) was dissolved in deionized water; purchased Sigma
Source text: (2)Method of Measuring Insulin β Structure Recognition
It is known that proteins having β sheet structure such as insulin, amylin, etc are present in the human body in addition to the amyloid β protein (Burket et al., Biochemistry, vol. 11, p. 2435-2439, 1972; Ashburn et al, Chemistry and Biology, vol. 3, p. 351-358, 1996). It is desirable that a probe for diagnosing diseases in which amyloid is accumulated, including Alzheimer's disease by recognizing the amyloid protein, has the higher affinity with the amyloid β protein and has the lower affinity with other proteins having β sheet structure. Then, the affinity of each compound to insulin having β structure was measured.
A method of quantifying β sheet structure of insulin in vitro was slightly modified to be used in the test of the present invention, with reference to the report by Klunk et al. (Journal of Histochemistry and Cytochemistry, vol.37, p.1237-1281, 1989). That is, insulin (purchased from Sigma) was dissolved in deionized water, adjusted to pH2 with hydrochloric acid, heated at 92° C. for 10 minutes, and cooled in a dry ice/ethanol cooling bath. Thereafter, heating at 92° C. for 3 minutes and cooling in a dry ice/ethanol cooling bath were repeated 7 or 8 times. This insulin solution was further diluted to 0.1 mg/ml with a phosphate buffer (pH 7.4) , and dispensed in a 96-well microplate at each volume of 50 microliters. A test compound dissolved in deionized water was dispensed at a volume of 50 microliters, and thiofravin T (emitting fluorescence depending on an extent of β structure) dissolved in a glycine-NaOH buffer (pH 8.5) was dispensed at each volume of 100 microliters, and then the fluorescent extent was measured with a fluorescent microplate reader (manufactured by Molecular Device, Model fmax) at an excitation wavelength of 442 nm and a measurement wavelength of 485 nm. When the fluorescence of thioflavin T alone was regarded as D, the fluorescence under the coexistence of insulin and thioflavin T was regarded as E, and the fluorescence under the coexistence of insulin, thioflavin T and a test compound was regarded as F, the insulin β structure recognition for the test compound was calculated by the following formula:
Insulin β structure recognition for test compound (%) ={(E−F)/(E−D)}×100
based on this value, by using the BSAS (Biological Statistical Analysis System) statistic program the 50% effective concentration (EC50) for recognizing an insulin β sheet structure for the test compound was obtained.

[1] = Distribution coefficient between water/1-octanol; format: physicochemical; conditions: 1-octanol / aqueous phase, pH 5
[2] = Distribution coefficient between water/1-octanol; format: physicochemical
Procedure: As an oily phase, 1-octanol was used and, as an aqueous phase, a phosphate buffer (pH 7.3) or ultra-pure water was used. A suitable amount of a test compound was dissolved in an oily phase or an aqueous phase, and both phases were placed in the same test tube, and shaken vigorously at room temperature for 30 minutes. After allowing to stand at room temperature over 1 hour, centrifugation at 2000 rpm for 10 minutes was carried out, followed by further standing at room temperature for 1 hour. The aqueous phase and the oily phase were sampled, respectively, and transferred to a 96-well microplate. By using a microplate reader (manufactured by Molecular Device, Model Spectramax 250), the absorbance was measured at a maximum absorbing wavelength for each test compound, and the concentration of the test compound was calculated from a calibration curve previously obtained. A distribution coefficient was calculated by the following formula. Distribution coefficient for test compound =(concentration of test compound in oily phase)/(concentration of test compound in aqueous phase) As the distribution coefficient becomes larger, it can be said that the blood-brain barrier permeability for the test compound is higher.

[3] = test compound 1 μM, thioflavin T 3 μM, average of duplicated experiments

T1 sequence (P05067 672-711 limits assumed): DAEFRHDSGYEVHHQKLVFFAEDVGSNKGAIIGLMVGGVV
T2 sequence (P01308 25-54 limits assumed, species assumed): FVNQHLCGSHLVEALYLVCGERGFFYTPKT
T2 sequence (P01308 90-110 limits assumed, species assumed): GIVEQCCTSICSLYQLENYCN

β structure recognition (%) at 1 µM (amyloid β protein; [3]) [%]	EC50 (insulin) [nM]	Distribution coefficient [1]	β structure recognition (in words) (amyloid β protein)	Distribution coefficient ([2]; 1-octanol / phosphate buffer (pH 7.3) or ultra-pure water)	Distribution coefficient (in words) ([2]; comment on Table I)	β Structure recognition (%) (amyloid β protein; [3])	SMILES	β structure recognition (%) at 1 µM (amyloid β protein) [%]
87.2	38		highly recognize β structure				CCN(CC)c1ccc(/N=N/c2ccc(Br)cn2)c(O)c1 [SA-147]	
96.9	449		highly recognize β structure				CN(C)c1ccc(/N=C2\C=CC(=O)c3ccccc32)cc1 [SA-244, Indophenol Blue]	
89.3	153						Nc1c(/N=N/c2ccc(-c3ccc(/N=N/c4cc(S(=O)(=O)O)c5ccccc5c4N)cc3)cc2)cc(S(=O)(=O)O)c2ccccc12 [Congo red, reference compound]	
	129		highly recognize β structure			93.6	CCN(CC)c1ccc(/N=C/c2ccc(N(CC)CC)cc2O)cc1 [Compound N-058, 5-(diethylamino)-2-({[4-(diethylamino)phenyl]imino}methyl)phenol]	

Further lines, the compound ahead of its results:

SMILES	β structure recognition (%) at 1 µM (amyloid β protein; [3]) [%]	EC50 (insulin) [nM]	Distribution coefficient [1]	β structure recognition (in words) (amyloid β protein)	Distribution coefficient ([2]; 1-octanol / phosphate buffer (pH 7.3) or ultra-pure water)	Distribution coefficient (in words) ([2]; comment on Table I)	β Structure recognition (%) (amyloid β protein; [3])	β structure recognition (%) at 1 µM (amyloid β protein) [%]
O=C(O)c1cc(/N=N/c2ccc(-c3ccc(/N=N/c4ccc(O)c(C(=O)O)c4)cc3)cc2)ccc1O [Chrysamine G, reference compound]	66.8	253	9.7 (pH 5)					
CN(C)c1ccc(/C=C/c2cccc(/C=C/c3ccc(N(C)C)cc3)[n+]2C)cc1.[I-] [Compound N-039, N-[4-(2-{6-[4-(dimethylamino)styryl]-1-methylpiridinium-2-yl}vinyl)phenyl]-N-methylmethanamine]	97.7	113		highly recognize β structure	35	high distribution coefficients		
CN(C)c1ccc(/N=N/c2ccc(N=C=S)cc2)cc1 [SA-239, 4-((4-isothiocyanatphenyl)azo)-N,N-dimethylaniline]		120		highly recognize β structure				83.3
